# Experimental data as given in patent US7541368B2, “Pyrazoles as inhibitors of tumor necrosis factor” (Aventis Pharmaceuticals Inc., priority 2003, dated 2009).
# Tested on: TNF-alpha release in THP-1 cells
# Assay: LPS-induced TNF-alpha release in THP-1 cells
# Format: cell-based
# Settings: Homo sapiens, THP-1, LPS-stimulated THP-1 cells; read-out: 50% inhibition in the LPS-induced TNF-alpha release in THP-1 cells assay at concentrations within the range
# Description: The effects of compounds on TNF-alpha production by lipopolysaccharide (LPS)-stimulated […] monocytes were examined as follows.
# Undifferentiated THP-1 cells were maintained in RPMI 1640 with Glutamax I containing β-mercaptoethananol (50 μM) and foetal calf serum (FCS-10%) at densities of about 1×10^6 cells per ml. For incubations without and with test reagents, cells were seeded at the indicated densities under serum-deprived (1% FCS) conditions. Compounds were dissolved in dimethylsulfoxide (DMSO-100%) and incubated with the cells to give a fmal DMSO concentration of 0.3%. Control and untreated cell samples were incubated with DMSO (0.3%).
# THP-1 cells (1×10 ^6 cells/ml, total volume 150 μl) in culture medium were incubated for 1 hour (5% CO2, 37° C.) with fresh medium containing compounds or vehicle (0.1-0.3% dimethylsulfoxide). LPS (20 μg/ml) was then added to the cells and the incubation continued for a fuirther 18 hours. Cell supernatants were removed into 96 well plates for storage at −20° C.
# TNF-alpha concentrations in cell supernatants were quantified by sandwich ELISA. Briefly, ELISA plates were coated overnight with 2 μg/ml of mouse anti-human TNF-alpha antibody in bicarbonate buffer (pH 9.9). After washing the wells with wash buffer (0.05% (v/v) Tween in PBS)and blocking unoccupied sites (1% BSA in wash buffer), monocyte supernatant samples or human recombinant TNF-alpha standards were added into the corresponding wells of the ELISA plate at 1:10 dilution. Biotinylated rabbit polyclonal anti-human TNF-alpha antibody (3 μg/ml) was used as the second antibody and streptavidin-horseradish peroxidase was used as the detection antibody. The peroxidase substrate is 3,3′,5,5′-tetramethylbenzidine (TMB) in the presence of hydrogen peroxide.
# TNFα concentrations in supernatants from control and LPS-stimulated monocyte incubations were calculated by interpolation from a standard (log/log) curve (0.125-16 ng/ml) fitted by Excel Fit using the Activity Base software. Compounds were tested within the concentration range of 1×10^−9M to 1×10^−6M.
row,Structure (SMILES),IC50
1,"COc1ccc(OC)c(C(=O)N2C3CCC2CC(Cc2ccc(NC(=O)Nc4cc(C(C)(C)C)nn4-c4ccc(C)cc4)cc2)C3)c1 (stereo not drawn) [Compound A1647, 1-(5-tert-Butyl-2-p-tolyl-2H-pyrazol-3-yl)-3-{4-[8-(2,5-dimethoxy-benzoyl)-8-aza-bicyclo[3.2.1]oct-3-ylmethyl]-phenyl}-urea]",10 to 500 nM
2,"Cc1ccc(-n2nc(C(C)(C)C)cc2NC(=O)Nc2ccc(CC3CCN(C(=O)Cc4ccsc4)CC3)cc2)cc1 [Compound A389, 1-(5-tert-Butyl-2-p-tolyl-2H-pyrazol-3-yl)-3-{4-[1-(2-thiophen-3-yl-acetyl)-piperidin-4-ylmethyl]-phenyl}-urea]",10 to 500 nM
3,"Cc1ccc(-n2nc(C(C)(C)C)cc2NC(=O)Nc2ccc(CC3CCN(C(=O)c4ccc(N)c(OC(F)(F)F)c4)CC3)cc2)cc1 [Compound A309, 1-{4-[1-(4-Amino-3-trifluoromethoxy-benzoyl)-piperidin-4-ylmethyl]-phenyl}-3-(5-tert-butyl-2-p-tolyl-2H-pyrazol-3-yl)-urea]",10 to 500 nM
4,"COc1ccc(CC(=O)N2CCC(Cc3ccc(NC(=O)Nc4cc(C(C)(C)C)nn4-c4ccc(C)cc4)cc3)CC2)cc1 [Compound A319, 1-(5-tert-Butyl-2-p-tolyl-2H-pyrazol-3-yl)-3-(4-{1-[2-(4-methoxy-phenyl)-acetyl]-piperidin-4-ylmethyl}-phenyl)-urea]",10 to 500 nM
5,"Cc1ccc(-n2nc(C(C)(C)C)cc2NC(=O)Nc2ccc(CC3CCN(C(=O)c4ccoc4C)CC3)cc2)cc1 [Compound A244, 1-(5-tert-Butyl-2-p-tolyl-2H-pyrazol-3-yl)-3-{4-[1-(2-methyl-furan-3-carbonyl)-piperidin-4-ylmethyl]-phenyl}-urea]",10 to 500 nM
6,"CO[C@H](C(=O)N1CCC(Cc2cccc(NC(=O)Nc3cc(C(C)(C)C)nn3-c3ccc(C)cc3)c2)CC1)c1ccccc1 [Compound A4, 1-(5-tert-Butyl-2-p-tolyl-2H-pyrazol-3-yl)-3-{3-[1-((S)-2-methoxy-2-phenyl-acetyl)-piperidin-4-ylmethyl]-phenyl}-urea]",10 to 500 nM
7,"Cc1ccc(-n2nc(C(C)(C)C)cc2NC(=O)Nc2ccc(CC3CCN(C(=O)C4(C)CC4)CC3)cc2)cc1 [Compound A206, 1-(5-tert-Butyl-2-p-tolyl-2H-pyrazol-3-yl)-3-{4-[1-(1-methyl-cyclopropanecarbonyl)-piperidin-4-ylmethyl]-phenyl}-urea]",10 to 500 nM

# More lines, now with the values ahead:
row,IC50,Structure (SMILES)
1,10 to 500 nM,"Cc1ccc(-n2nc(C(C)(C)C)cc2NC(=O)Nc2cccc(CC3CCN(C(=O)Cc4ccccc4C)CC3)c2)cc1 [Compound A182, 1-(5-tert-Butyl-2-p-tolyl-2H-pyrazol-3-yl)-3-{3-[1-(2-o-tolyl-acetyl)-piperidin-4-ylmethyl]-phenyl}-urea]"
2,10 to 500 nM,"Cc1ccc(-n2nc(C(C)(C)C)cc2NC(=O)Nc2ccc(CC3CCN(C(=O)C4CCCO4)CC3)cc2)cc1 (stereo not drawn) [Compound A258, 1-(5-tert-Butyl-2-p-tolyl-2H-pyrazol-3-yl)-3-{4-[1-(tetrahydro-furan-2-carbonyl)-piperidin-4-ylmethyl]-phenyl}-urea]"
3,10 to 500 nM,"Cc1ccc(-n2nc(C(C)(C)C)cc2NC(=O)Nc2cccc(CC3CCN(C(=O)Cc4ccsc4)CC3)c2)cc1 [Compound A190, 1-(5-tert-Butyl-2-p-tolyl-2H-pyrazol-3-yl)-3-{3-[1-(2-thiophen-3-yl-acetyl)-piperidin-4-ylmethyl]-phenyl}-urea]"
4,10 to 500 nM,"Cc1ccc(-n2nc(C(C)(C)C)cc2NC(=O)Nc2cccc(CC3CCN(C(=O)c4ccc(N)c(OC(F)(F)F)c4)CC3)c2)cc1 [Compound A114, 1-{3-[1-(4-Amino-3-trifluoromethoxy-benzoyl)-piperidin-4-ylmethyl]-phenyl}-3-(5-tert-butyl-2-p-tolyl-2H-pyrazol-3-yl)-urea]"
5,10 to 500 nM,"Cc1ccc(-n2nc(C(C)(C)C)cc2NC(=O)Nc2ccc(CC3CCN(C(=O)c4cccc(Nc5nc(C)cc(C)n5)c4)CC3)cc2)cc1 [Compound A371, 1-(5-tert-Butyl-2-p-tolyl-2H-pyrazol-3-yl)-3-(4-{1-[3-(4,6-dimethyl-pyrimidin-2-ylamino)-benzoyl]-piperidin-4-ylmethyl}-phenyl)-urea]"
